≈ marks a conversion by molar mass, not a printed value. Counter-ions that a name gives are not always drawn.
Legend:
[1] = tested on: VEGF non-dependent human umbilical vein endothelial cells (HUVEC); experiment: Cell growth inhibition test, VEGF non-dependent HUVEC; assay type: cell-based; conditions: 72 hours, WST-1, read-out: HUVEC (VEGF Nondependence), 50% Growth Inhibition Concentration (IC50 value)
Protocol: (§1) Cell Growth Inhibition Test
(§2) With respect to the compounds relating to the present invention and the known compound (BAY 43-9006), cell growth inhibition activity was measured.
(§3) A sample compound was in-series diluted with dimethyl sulfoxide, and then was 1/50 diluted with a Ca^2+- and Mg^2+-free phosphate-bufferized physiological saline and its 20 μL was poured to a 96-well plate. […] Each of these cell suspensions was dividedly poured to the sample added plate in 180 μL/well and cultured in a 5% carbon dioxide incubator at 37° C. After 72 hours, 20 μL of WST-(HCT 116, a product of Dojin) or WST-1 (HUVEC, a product of Roche diagnostics) was added thereto to each well and the absorbance at 450 nm (reference wavelength: 650 nm) was measured. From the growth inhibition ratio of addition of the sample compound to no-addition of the sample compound as a reference, the 50% growth inhibition IC50) of the sample compound was calculated.
(§4) With respect to the group of representative compounds of the present invention, the IC50 values of HCT 116 and HUVEC (VEGF nondependent growth and VEGF dependent growth) are shown in Tables 5-1 to 5-3.

[2] = Solubility to fasted state simulated intestinal fluid; assay type: physicochemical; conditions: fassif, kinetic from dmso stock, fasted state simulated intestinal fluid (pH 6.5), 37° C.
Protocol: Method of Measuring Solubility to Fasted State Simulated Intestinal Fluid
To a 96-well plate, 2 μL of a dimethyl sulfoxide solution of the compound relating to the present invention or that of the compound BAY 43-9006 was poured at one time, respectively, and fasted state simulated intestinal fluid (pH 6.5) was added 200 μL by 200 μL, and the plate was shaken at 37° C. for 20 hours. The solution was filtered with a membrane filter and 101 μL of the filtrate was transferred to an UV plate, and 100 μL of a mixed solution of ethanol:water=2:1 was added thereto. On the other hand, as a standard solution, 2 μL of a dimethyl sulfoxide solution was added to a solution containing 4 μL of dimethyl sulfoxide, 400 μL of ethanol and 200 μL of water and the obtained solution was transferred 101 μL by 101 μL to the UV plate and to this UV plate, the simulated fasting bile-containing intestinal juice (pH 6.5) was added 100 μL by 100 μL. The solubility was calculated by the following equation. Solubility=(absorbance of sample solution-blank)/(absorbance of standard solution-blank)×[…]
165 μL is a concentration of the standard solution.
Composition of Fasted State Simulated Intestinal Fluid
Fasted state simulated intestinal fluid was prepared in accordance with E. Galia et al., Pharm. Res., 698, 1998.
To about 90 mL of water, 161 mg of taurocholic acid, 59 mg of L-α-phosphatidylcholine, 0.39 g of potassium dihydrogenphosphate and 0.77 g of potassium chloride were added and the pH of the mixture solution […] and the mixture solution was filtered with a membrane filter.

[3] = target: T1, recombinant Raf-1 protein (activated type GST-Raf-1) (Homo sapiens, UniProt P04049); experiment: RAF-1 enzyme inhibition test (33P incorporation into MEK 1 protein); assay type: biochemical; conditions: 10 μM ATP, GST-MEK1 substrate, 30° C., 45 minutes; read-out: Raf-1 Enzyme Inhibition, 50% Enzyme Inhibition Concentration (IC50 value)
T1 construct: fused on or other part: GST tag fused to Raf-1
Protocol: RAF-1 Enzyme Inhibition Test
With respect to the compounds relating to the present invention and the known compound (BAY 43-9006):
[drawing 660] the Raf-1 protein inhibition activity was measured. The enzymatic reaction was measured by incorporation of ^33P-phosphoric acid into MEK 1 protein by a recombinant Raf-1 protein. The activity was measured by preparing 50 μL of a reaction solution containing a dimethyl sulfoxide solution of the compound relating to the present invention or the compound BAY 43-9006 at a varied concentration [as the final concentration, the reaction solution containing […] of TRIS hydrochloric buffer (pH 7.5), 1 mM of dithiothreitol, 100 mM of sodium chloride, 10 mM of potassium fluoride, 1 mM of sodium vanadate, 10 mM of magnesium chloride, 10 μM of adenosine triphosphate (ATP, containing ^33P-ATP of 12580Bq), 2 μg of GST-MEK1 and 25 ng of an activated type GST-Raf-1]; keeping the reaction solution at 30° C. for 45 minutes; adding 100% trichloroacetic acid to the reaction solution in an amount twice the volume of the reaction solution to precipitate a proteinous component; recovering the precipitate on a glass filter; and measuring the radioactivity of the recovered product. The 50% inhibition concentration (IC50) was obtained from the inhibition ratio to a sample-free reference.
The compound BAYT 43-9006 was prepared on the basis of the description (Example 41) of WO 00/42012.

[4] = tested on: human colorectal cancer cell strain HCT 116; experiment: Cell growth inhibition test, HCT 116; assay type: cell-based; conditions: 72 hours, read-out: HCT116, 50% Growth Inhibition Concentration (IC50 value)
Protocol: as §1, §2, §3, §4

VEGF dependent HUVEC = experiment: Cell growth inhibition test, VEGF dependent HUVEC; assay type: cell-based; conditions: Homo sapiens, 20 ng/mL of VEGF, 72 hours, WST-1, read-out: HUVEC (VEGF Dependence), 50% Growth Inhibition Concentration (IC50 value)
Protocol: as §1, §2, §3, §4

[5] = Antitumor test, reduction in body weight; assay type: in vivo, male Balb/c nude mouse; conditions: dosage 200 mg/kg, orally one time a day for 5 days, day 7 after starting administration
Protocol: (§5) A cell suspension of a human colorectal cancer cell strain HCT 116 was prepared with a Hunks' balanced salt solution. Its 5.0×10^6 were inoculated subcutaneously to the flank of each male Balb/c nude mouse. When the mean volume of a tumor reached 200 to 250 mm^3, a sample compound was orally administered one time a day for 5 days. The tumor volume was calculated from the calculation formula: 0.5×(minor diameter)^2×(major diameter), and the tumor growth inhibition ratio was calculated from the ratio of the tumor growth of the sample administered group to that of a reference group. The dosage in the antitumor test, the tumor growth inhibition ratio on the final administration day and the reduction in body weight on day 7 after starting administration are shown in Tables 6-1 and 6-2

[6] = tested on: human colorectal cancer cell strain HCT 116; experiment: Antitumor test, HCT 116 inoculated subcutaneously in nude mouse; assay type: in vivo, male Balb/c nude mouse; conditions: dosage 200 mg/kg, orally one time a day for 5 days, final administration day
Protocol: as §2, §5

T1 sequence (P04049 349-648 limits assumed): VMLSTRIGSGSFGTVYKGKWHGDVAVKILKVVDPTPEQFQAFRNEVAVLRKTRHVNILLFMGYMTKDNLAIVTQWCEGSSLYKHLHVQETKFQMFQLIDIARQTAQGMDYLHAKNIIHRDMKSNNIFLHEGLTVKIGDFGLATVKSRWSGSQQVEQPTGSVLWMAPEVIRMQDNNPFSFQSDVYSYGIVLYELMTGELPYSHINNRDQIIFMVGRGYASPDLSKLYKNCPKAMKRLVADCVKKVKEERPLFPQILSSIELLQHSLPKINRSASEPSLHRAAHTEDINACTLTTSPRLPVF

SMILES	IC50 [1]	solubility at 20 h [2]	IC50 [3]	IC50 [4]	IC50 (VEGF dependent HUVEC)	Body Weight Reduction ratio (%) [5]	Tumor Inhibition Ratio (%) [6]
CNc1ncnc2c1ncn2-c1ccc(NC(=O)Nc2ccc(CN3CC(C)NC(C)C3)c(C(F)(F)F)c2)cc1 (stereo not shown) [Table 3, Compound 46, 1-[4-(3,5-Dimethyl-piperazin-1-ylmethyl)-3-(trifluoromethyl)phenyl]-3-[4-(6-(methylamino)purin-9-yl)phenyl]urea]	4200 nM	23 µg/mL (≈ 41.5 µM)	41 nM	2800 nM	290 nM		
CNc1ncnc2c1ncn2-c1ccc(NC(=O)Nc2ccc(OC3CCN(C)CC3)c(C(F)(F)F)c2)cc1 [Table 2, Compound 62, 1-[4-(6-(Methylamino)purin-9-yl)-phenyl]-3-[4-(1-methylpiperidin-4-yloxy)-3-(trifluoromethyl)phenyl]-urea]	900 nM	35 µg/mL (≈ 64.7 µM)		700 nM	11 nM		
CN(C)/C=N\c1ncnc2c1ncn2-c1ccc(NC(=O)Nc2ccc(Cl)c(C(F)(F)F)c2)cc1 [Table 1, Compound 95, N′-(9-{4-[3-(4-Chloro-3-(tri-fluoromethyl)phenyl)ureido]-phenyl}-9H-purin-6-yl}-N,N-dimethylformamidine hydro-chloride]	2600 nM		42 nM	3100 nM	470 nM		
CNc1ncnc2c1ncn2-c1ccc(NC(=O)Nc2ccc(OCCN(C)C)c(C(F)(F)F)c2)cc1 [Table 2, Compound 52, 1-[4-(2-Dimethylaminoethoxy)-3-(trifluoromethyl)phenyl]-3-[4-(6-(methylamino)purin-9-yl)phenyl]urea]	3800 nM	126 µg/mL (≈ 245 µM)		3800 nM	270 nM		
CNc1ncnc2c1ncn2-c1ccc(NC(=O)Nc2cc(CN(C)C)cc(C(F)(F)F)c2)cc1 [Table 2, Compound 30, 1-(3-Dimethylaminomethyl-5-(trifluoromethyl)phenyl)-3-[4-(6-(methylamino)purin-9-yl)-phenyl]urea]		105 µg/mL (≈ 217 µM)	190 nM			5.7%	131%
N[C@@H](CCC(=O)Nc1ncnc2c1ncn2-c1ccc(NC(=O)Nc2ccc(Cl)c(C(F)(F)F)c2)cc1)C(=O)O [Table 1, Compound 104, (S)-2-Amino-4-(9-{4-[3-(4-chloro-3-(trifluoromethyl)-phenyl)ureido]phenyl}-9H-purin-6-ylcarbamoyl)butanoic acid hydrochloride]	7400 nM		74 nM	3900 nM	930 nM		
CNc1ncnc2c1ncn2-c1ccc(NC(=O)Nc2ccc(CN3CCOCC3)c(C(F)(F)F)c2)cc1 [Table 2, Compound 47, 1-[4-(6-(Methylamino)purin-9-yl)phenyl]-3-(4-morpholin-4-ylmethyl-3-(trifluoromethyl)phenyl)urea]	700 nM			900 nM	29 nM		
COCCNc1ncnc2c1ncn2-c1ccc(NC(=O)Nc2ccc(Cl)c(C(F)(F)F)c2)cc1.Cl [Table 1, Compound 35, 1-(4-Chloro-3-(trifluoromethyl)phenyl)-3-{4-[6-(2-methoxy-ethylamino)purin-9-yl]phenyl}urea hydrochloride]	2400 nM	24 µg/mL		2800 nM	460 nM		
CNc1ncnc2c1ncn2-c1ccc(NC(=O)Nc2ccc(OCCOC)c(C(F)(F)F)c2)cc1 [Table 3, Compound 41, 1-[4-(2-Methoxy-ethoxy)-3-(trifluoromethyl)phenyl]-3-[4-(6-(methylamino)purin-9-yl)phenyl]urea]	900 nM			800 nM	76 nM		
CNc1ncnc2c1ncn2-c1ccc(NC(=O)Nc2cc(N(C)C)cc(C(F)(F)F)c2)cc1 [Table 2, Compound 48, 1-(3-Dimethylamino-5-(trifluoromethyl)phenyl)-3-[4-(6-(methylamino)purin-9-yl)phenyl]urea]	3700 nM			2400 nM	280 nM		
CNc1ncnc2c1ncn2-c1ccc(NC(=O)Nc2cc(CCCN3CCOCC3)cc(C(F)(F)F)c2)cc1 [Table 3, Compound 48, 1-[4-(6-(Methylamino)purin-9-yl)phenyl]-3-[3-(3-morpholin-4-yl-propyl)-5-(trifluoromethyl)phenyl]-urea]	3200 nM			2500 nM	39 nM		
CC(C)C[C@H](N)C(=O)Nc1ncnc2c1ncn2-c1ccc(NC(=O)Nc2ccc(Cl)c(C(F)(F)F)c2)cc1 [Table 1, Compound 96, (S)-2-Amino-4-methyl-pentanoic acid 9-{4-[3-(4-chloro-3-(tri-fluoromethyl)phenyl)ureido}-phenyl)-9H-purin-6-yl)amide hydrochloride]	3200 nM	102 µg/mL	44 nM	2200 nM	91 nM		
CNc1ncnc2c1ncn2-c1ccc(NC(=O)Nc2ccc(CCCN3CCOCC3)c(C(F)(F)F)c2)cc1 [Table 2, Compound 76, 1-[4-(6-(Methylamino)purin-9-yl)phenyl]-3-[4-[3-morpholin-4-yl-propyl]-3-(trifluoromethyl)phenyl]-urea]	1000 nM			900 nM	57 nM		
Nc1ncnc2c1ncn2-c1ccc(N(O)C(=O)Nc2ccc(Cl)c(C(F)(F)F)c2)cc1 [Table 1, Compound 49, 1-[4-(6-Aminopurin-9-yl)phenyl]-3-(4-chloro-3-(trifluoromethyl)phenyl)-1-hydroxyurea hydrochloride]	4100 nM			7300 nM	190 nM		
CNC(=O)c1nccc2c1ncn2-c1ccc(NC(=O)Nc2ccc(Cl)c(C(F)(F)F)c2)cc1 [Table 1, Compound 93, 1-{4-[3-(4-Chloro-3-(trifluoro-methyl)phenyl)ureido]phenyl}-1H-imidazo[4,5-c]pyridine-4-carboxylic acid methylamide]			53 nM			6.0%	79%

From patent US8609656B2, “Heteroarylphenylurea derivative” (Chugai Seiyaku Kabushiki Kaisha, priority 2004, dated 2013)
